The values below come from ChEMBL document CHEMBL1146989 (Bioorg Med Chem Lett, 2006).

The target of this test is PI3-kinase p110-alpha/p85-alpha (Homo sapiens, UniProt P42336). Kind of test: Inhibition of PI3 kinase p110alpha/p85-alpha complex. The class given is protein-complex assay.

By IC50 is commonly meant the point on the concentration scale where inhibition reaches its midpoint.

Chain of PI3-kinase p110-alpha/p85-alpha (P27986 whole entry): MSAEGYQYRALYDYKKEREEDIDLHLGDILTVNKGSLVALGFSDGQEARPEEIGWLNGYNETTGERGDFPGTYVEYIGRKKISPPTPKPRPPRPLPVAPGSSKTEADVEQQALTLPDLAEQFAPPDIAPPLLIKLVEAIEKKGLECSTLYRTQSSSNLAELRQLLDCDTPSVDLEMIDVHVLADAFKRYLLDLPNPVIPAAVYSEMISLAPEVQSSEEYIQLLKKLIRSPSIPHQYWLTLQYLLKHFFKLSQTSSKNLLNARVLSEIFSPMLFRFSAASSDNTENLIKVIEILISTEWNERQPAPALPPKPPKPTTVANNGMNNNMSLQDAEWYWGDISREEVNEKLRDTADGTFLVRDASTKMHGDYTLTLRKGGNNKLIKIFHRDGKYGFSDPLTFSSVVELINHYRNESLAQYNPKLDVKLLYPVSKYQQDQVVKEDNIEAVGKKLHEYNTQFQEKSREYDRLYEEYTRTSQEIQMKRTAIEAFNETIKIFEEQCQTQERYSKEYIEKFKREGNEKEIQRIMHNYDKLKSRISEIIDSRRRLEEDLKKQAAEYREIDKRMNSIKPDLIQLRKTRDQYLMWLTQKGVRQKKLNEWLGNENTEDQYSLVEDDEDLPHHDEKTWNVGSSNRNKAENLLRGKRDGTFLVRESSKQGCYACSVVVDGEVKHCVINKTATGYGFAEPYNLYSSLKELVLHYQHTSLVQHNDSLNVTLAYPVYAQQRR
Chain of PI3-kinase p110-alpha/p85-alpha (P42336 whole entry): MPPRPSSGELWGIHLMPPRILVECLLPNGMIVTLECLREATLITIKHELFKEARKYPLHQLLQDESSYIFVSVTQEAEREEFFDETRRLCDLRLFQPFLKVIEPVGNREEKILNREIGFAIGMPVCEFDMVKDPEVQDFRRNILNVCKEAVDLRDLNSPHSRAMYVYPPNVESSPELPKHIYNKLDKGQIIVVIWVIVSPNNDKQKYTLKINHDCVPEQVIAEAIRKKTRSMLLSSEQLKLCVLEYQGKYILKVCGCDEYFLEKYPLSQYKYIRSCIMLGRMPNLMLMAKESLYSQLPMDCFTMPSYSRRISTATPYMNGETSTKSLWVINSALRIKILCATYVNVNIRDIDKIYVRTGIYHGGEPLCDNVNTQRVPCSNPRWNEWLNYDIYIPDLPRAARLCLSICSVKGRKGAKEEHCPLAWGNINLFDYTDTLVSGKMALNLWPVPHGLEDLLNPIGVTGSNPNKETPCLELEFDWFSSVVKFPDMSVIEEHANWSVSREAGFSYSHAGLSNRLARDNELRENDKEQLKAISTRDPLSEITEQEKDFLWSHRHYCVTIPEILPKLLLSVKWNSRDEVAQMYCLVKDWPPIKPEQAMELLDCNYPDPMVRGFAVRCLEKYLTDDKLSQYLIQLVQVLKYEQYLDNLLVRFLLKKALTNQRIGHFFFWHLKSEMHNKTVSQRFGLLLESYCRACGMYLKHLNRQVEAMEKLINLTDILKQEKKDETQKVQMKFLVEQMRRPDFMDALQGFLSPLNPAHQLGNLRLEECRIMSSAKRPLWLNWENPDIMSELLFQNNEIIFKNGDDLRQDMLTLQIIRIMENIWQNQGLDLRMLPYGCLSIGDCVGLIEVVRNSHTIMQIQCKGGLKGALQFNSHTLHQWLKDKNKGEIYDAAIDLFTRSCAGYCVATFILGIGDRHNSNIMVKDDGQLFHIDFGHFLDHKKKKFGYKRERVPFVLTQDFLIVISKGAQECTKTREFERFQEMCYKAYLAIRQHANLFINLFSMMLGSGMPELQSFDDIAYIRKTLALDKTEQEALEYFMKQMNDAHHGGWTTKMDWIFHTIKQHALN

As to `CN(CC(=O)O[C@@H]1CC(=O)c2coc3c2[C@@]1(C)c1ccc2c(c1C3=O)CCC2=O)c1ccc([N+](=O)[O-])c2nonc12`, the IC50 turned out to be 9.6 nM.

As to `COC[C@H]1OC(=O)c2coc3c2[C@@]1(C)C1=C(C3=O)C2CC[C@H](OC(=O)Cc3cc(=O)oc4cc(N(C)C)ccc34)[C@@]2(C)C[C@H]1OC(C)=O` (stereo partly specified), half-maximal inhibition (IC50) was put at 695 nM.

With `COC[C@H]1OC(=O)c2coc3c2[C@@]1(C)C1=C(C3=O)C2CC[C@H](OC(=O)CN(C)c3ccc([N+](=O)[O-])c4nonc34)[C@@]2(C)C[C@H]1OC(C)=O` (stereo partly specified), the IC50 stood at 225 nM.

`COC[C@H]1OC(=O)c2coc3c2[C@@]1(C)C1=C(C3=O)C2CCC(=O)[C@@]2(C)C[C@H]1OC(=O)CN(C)c1ccc([N+](=O)[O-])c2nonc12` (stereo partly specified) registered an IC50 of 0.7 nM.

`CN(C)c1ccc2c(CC(=O)O[C@@H]3CC(=O)c4coc5c4[C@@]3(C)c3ccc4c(c3C5=O)CCC4=O)cc(=O)oc2c1` returned an IC50 of 1.9 nM.

`COC[C@H]1OC(=O)c2coc3c2[C@@]1(C)C1=C(C3=O)C2CCC(=O)[C@@]2(C)C[C@H]1OC(=O)Cc1cc(=O)oc2cc(N(C)C)ccc12` (stereo partly specified) displayed an IC50 of 10.1 nM.
